Data from patent US20050143450A1, “Alkyl PCDF as a treatment for prostate cancer” (priority 2002, published 2005).

Target: T1, hAR (Homo sapiens, UniProt P10275)
T1 construct: expressed in transfected cells; host or cells: ZR-75
T1 sequence (P10275 1-920): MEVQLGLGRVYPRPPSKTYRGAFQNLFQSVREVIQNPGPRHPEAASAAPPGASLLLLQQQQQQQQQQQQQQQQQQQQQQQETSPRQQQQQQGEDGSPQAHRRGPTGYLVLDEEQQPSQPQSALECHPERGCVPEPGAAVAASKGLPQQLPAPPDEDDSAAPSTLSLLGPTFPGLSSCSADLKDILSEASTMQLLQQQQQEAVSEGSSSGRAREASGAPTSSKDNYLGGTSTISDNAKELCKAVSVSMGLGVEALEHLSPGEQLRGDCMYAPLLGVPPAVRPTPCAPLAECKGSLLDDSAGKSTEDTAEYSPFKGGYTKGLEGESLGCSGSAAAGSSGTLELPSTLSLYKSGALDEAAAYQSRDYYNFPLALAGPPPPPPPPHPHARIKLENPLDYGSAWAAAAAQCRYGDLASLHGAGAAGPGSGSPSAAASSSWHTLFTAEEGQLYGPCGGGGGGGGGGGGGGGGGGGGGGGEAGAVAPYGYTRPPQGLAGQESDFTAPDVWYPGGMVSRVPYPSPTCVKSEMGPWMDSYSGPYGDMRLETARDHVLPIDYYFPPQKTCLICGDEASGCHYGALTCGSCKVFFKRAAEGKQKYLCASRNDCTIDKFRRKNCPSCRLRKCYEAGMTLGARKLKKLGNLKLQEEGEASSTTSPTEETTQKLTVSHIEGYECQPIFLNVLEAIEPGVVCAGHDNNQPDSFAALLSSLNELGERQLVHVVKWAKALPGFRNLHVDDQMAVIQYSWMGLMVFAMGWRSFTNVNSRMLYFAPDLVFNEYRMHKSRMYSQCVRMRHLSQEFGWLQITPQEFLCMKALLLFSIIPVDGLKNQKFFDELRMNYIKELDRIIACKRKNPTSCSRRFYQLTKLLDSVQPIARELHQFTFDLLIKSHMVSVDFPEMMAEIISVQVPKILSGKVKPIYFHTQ
Test: Hormone-induced transactivation in ZR-75 cells cotransfected with pPB and hAR
Type: cell-based
Conditions: cotreated with hormone plus TCDD
Experimental: After 24 h, cells were transfected using Lipofectamine and Plus reagents (Invitrogen) according to manufacturer's instructions. LNCaP and ZR-75 cells were transfected with 500 ng/well of either reporter plasmid, and 250 ng/well of pcDNA3.1-β-gal (Invitrogen) as the internal control. In addition, ZR-75 cells were transfected with 500 ng hAR. Twenty-four hours after treatment, cells were harvested by scraping with 200 μL/well of reporter lysis buffer. Lysates were centrifuged at 40,000 g and luciferase and β-galactosidase activity was assayed with 30 μL of the supernatant extract per sample using a Lumicount luminometer (PerkinElmer, Boston, Mass.). Luciferase activity was normalized to β-galactosidase activity for each transfection well.

## Clc1cc2c(cc1Cl)Oc1cc(Cl)c(Cl)cc1O2 [TCDD, 2,3,7,8-tetrachloro-p-dioxin]
  effect on DHT-induced activity: not
  effect on E2-induced activity: inhibited
